The results in this text go back to patent US20160039852A1, “THERAPEUTIC USES OF BISPHOSPHONATES” (THE UNIVERSITY OF SHEFFIELD, priority 2013, published 2016).

Molecules are shown by their SMILES. Entries after “also recorded” stand apart in the source; their conditions may differ.

The subject of one assay is unprenylated RAP1A. Nature of the assay: Western blot of unprenylated RAP1A in cancer lines. The format is cell-based, human and murine. The conditions noted are these: Zol (1 μM) for 72 h. As for the experimental part: (A) A representative example of western blot analysis of human mesenchymal stem cells (MSC) and human and murine prostate cancer cell lines (human: PC3, murine 178-2 BMA), human breast cancer cell line (MDA-MB231), murine multiple myeloma cancer lines (5TGM1 and 5T33) cultured in presence or absence of Zol (1 μM) for 72 h and assessed for the expression of unprenylated RAP1A and GAPDH.
Protein lysates (50 μg) were diluted in equal volume of 2× Laemmli buffer (Gibco) containing Dithiothreitol (DTT, Sigma,UK). The samples were heated at 95° C. for 5 minutes and loaded on a 12% Tris-glycine gel. After electro-blotting, membranes were blocked with 5% Bovine serum albumin (BSA) in 0.1% Tween 20 in PBS (PBS-T) for detection of glyceraldehyde-3-phosphate dehydrogenase (GAPDH) and 5% dry milk in PBS-T for detection of unprenylated RAP1A (Santacruz Biotechnology, Santa Cruz, USA). In case of P-AKT, P-70S6K membranes were blocked with 5%BSA in 1× tris buffered saline and 0.1% tween-20 (TBS-T), where for AKT and P70S6K membranes were blocked with 5% dry milk in TBS-T. All membranes were blocked for 2 hours at room temperature. […] Detection was carried out using enhanced chemi-luminescence plus ECL reaction kit (GE Healthcare, Buckinghamshire, UK) and quantification of protein expression was carried out using image J software.
For orientation: Immunoblotting shows a protein as a band on a membrane.

Assay [1] deals with normal human dermal fibroblasts. The assay is described as follows: γH2AX DNA damage foci in human dermal fibroblasts after irradiation. The format is cell-based. The following applies: 1Gy, Zol (1 μM). The protocol: (B) Number of yH2AX DNA damage foci in human dermal fibroblasts (n=4 cultures) not irradiated (UI) or exposed to irradiation (IR) 1Gy in the presence or absence of Zol (1 μM) and with the addition of Farnesol (FOH) or geranylgeraniol (GGOH).

Assay [2] deals with 5T33 Multiple Myeloma line. Nature of the assay: γH2AX DNA damage foci in 5T33 multiple myeloma line after irradiation. The following applies: 1 μM Zol for 3 days prior to 1Gy, γH2AX 4 h later. The class given is cell-based, murine. The protocol:
5T33MM were exposed to 1 μM Zol for 3 days prior to irradiation at 1Gy and assessment of γH2AX 4 h later (Zol). UI, are hMSC non irradiated, PBS, are hMSC irradiated in absence of Zol. Data are expressed as mean±SEM and were analysed by one way ANOVA and Bonferroni post-test for multiple comparison *p<0.05, **p<0.01, ***p<0.001
DNA damage was induced by exposing hMSC to ^137Cs Gamma source. Cells were washed with PBS and fixed with 4% Para-formaldehyde for 15mins. Cells were then washed with PBS permeabilized with 0.5% Triton-X (Sigma, UK) for 2mins and blocked with 5% normal goat serum (DAKO, Glostrup, Denmark) in PBS for 1 hr. This was followed by incubation with primary antibody, anti-phospho histone H2AX (Ser139) (Millipore, Massachusetts, USA) used at 1:800 in 5% normal goat serum, overnight at 4° C. Cells were then washed in PBS and incubated in secondary Anti mouse IgG Fluorescein Isothiocyanate (FITC) conjugated (Insight Biotechnology, Santa Cruz, USA) at 1:200 in PBS for 1 hour at room temperature. The cover-slips were mounted on slides with mounting media (VectaShield) containing 4′,6-diamidino-2-phenylindole (DAPI) to stain the nuclei. […] Five to seven fields consisting of 25 cells in total were randomly selected from a tile scan (20×) and individual cells viewed at 63× were then scored for γH2AX DNA damage foci using ImageJ 1.45 software (http://rsbweb.nih.gov/ij/).

For assay [3], the system named is murine multiple myeloma line, 5TGM1. The assay is described as follows: γH2AX DNA damage foci in 5TGM1 multiple myeloma line after irradiation. The format is cell-based. The conditions noted are these: irradiated in presence versus absence of Zol, 4 h after irradiation, n=3.
Assay [4] deals with murine and human cancer lines (PC3, 178-2 BMA, MDA-MB231, 5TGM1, 5T33). The assay is described as follows: γH2AX foci in cancer lines following irradiation. The format is cell-based. The following applies: irradiation (1Gy), Zol, 0, 4, 12, 24 and 48 h post irradiation. As for the experimental part: (C-H) Number of γH2AX foci enumerated in (C) hMSC, (D) PC3, (E) 178-2 BMA, (F) MDA-MB231,
(G) 5TGM1 and (H) 5T33 lines following irradiation (1Gy) in the presence or absence of Zol ([…]) and assessed at 0, 4, 12, 24 and 48 h post irradiation (n=3).
Human prostate cancer cell line PC3 cells were maintained in DMEM with Glutamax (Gibco) containing 10% FBS (Sigma), 1% penicillin (100units/ml)/streptomycin (100 μg/ml) (Sigma). Mouse prostate cancer cell line 178-2 BMA was cultured as described above with the addition of 0.1 mM 4-(2-hydroxyethyl)-1-piperazineethanesulfonic acid (Life Technologies, Gaithersburg, USA) and 0.01 mM sodium pyruvate (PAA Laboratories). Human breast cancer cell line MDA-MB-231 was cultured in RPMI 1640 with Glutamax supplemented with 10% FBS (Sigma), 0.01 mM sodium pyruvate (PAA laboratories) and penicillin (1 units/ml) and streptomycin (1 μg/ml) (Sigma). […]
DNA damage was induced by exposing hMSC to ^137Cs Gamma source. […] Five to seven fields consisting of 25 cells in total were randomly selected from a tile scan (20×) and individual cells viewed at 63× were then scored for γH2AX DNA damage foci using ImageJ 1.45 software (http://rsbweb.nih.gov/ij/).

The test system of assay [5] is human mesenchymal stem cells (hMSC). The assay is described as follows: hMSC growth kinetics, cumulative population doublings with time in culture. The class given is cell-based.

Regarding `O=P(O)(O)C(O)(Cn1ccnc1)P(=O)(O)O` [Zoledronate], in the assay with unprenylated RAP1A, the “mevalonate pathway (unprenylated RAP1A)” value is on record as “inhibition of mevalonate pathway”. Moreover, the “DNA repair ability following irradiation (γH2AX foci)” value in assay [1] was “enhances DNA repair ability”. Further, the “DNA repair capacity (γH2AX foci)” value in assay [2] and in assay [4] was “does not enhance the DNA repair capacity” in each case. Besides, in assay [3], the “number of γH2AX DNA damage foci” value is recorded as “No significant difference”. For the same compound, the “population doublings after which cultures were still proliferating” value in assay [5] (hMSC grown in presence of Zol (1 μM), PBS cultures senesced after 21-27 PDs, n=3) is 29-36 PDs. Moreover, the “ability of hMSC to proliferate and differentiate following irradiation” value in assay [5] (irradiated at 3 Gy, Zol for 3 days, washed off 12 h later) was “rescues hMSCs ability to proliferate and differentiate”. For the same compound, the “hMSC life span / time of proliferation in culture” value in assay [5] (versus PBS control, listed as Zol) is given as “extension of life span; also recorded: proliferated for a longer time than control cells”.
